# What was measured:
# MVA = assay type: cell-based, Modified Vaccinia Ankara virus
smiles,measurement,setting,value
CN(C)[C@@H]1C(O)=C(C(N)=O)C(=O)[C@@]2(O)C(O)=C3C(=O)c4c(O)cccc4[C@@](C)(O)[C@H]3C[C@@H]12 [tetracycline],cytotoxic effect of tetracycline,CEF cells,pronounced cytotoxic effect
same,reduction of MVA replication,MVA,1 log

# From US8741653B2, “Single recombination system and methods of use” (priority 2008, dated 2014)
